Data taken from patent publication US5545667A, “Methods for treating neoplasms with betaines” (The Clorox Company, priority 1994, dated 1996).
Where a name gives a salt, the structure may show the parent alone.

Tests used:
[1] = tested on: HeLa cells, DNA synthesis; experiment: DNA synthesis in HeLa cells (3H-thymidine); assay type: cell-based
Experimental: (§1) The 16-5B compound was evaluated further using HeLa cells to gain some insight into the mechanism of action of this group of compounds. In these studies, the ability of this compound to inhibit macromolecular synthesis in the cells was examined. The effects of 16-5B on DNA, RNA and protein synthesis was monitored using labeled thymidine, uridine or leucine, respectively. These precursors readily incorporate into the appropriate cellular macromolecules in the cells.
(§2) For assays of macromolecular biosynthesis in HeLa cells, cells were seeded into 60 mm culture dishes (Falcon Labware, Lincoln Park, N.J.) at a density 1×10^5 /ml in 5 mls of cell culture medium. Cells were allowed to grow at 37° C. for 48 hours before use. Culture plates were then removed from the incubator and washed with phosphate buffered saline. The cells were then incubated with increasing concentrations of the 16-5B in 2 ml of serum-free Dulbecco's modified Eagle's medium supplemented with 0.075% sodium bicarbonate. Control cultures were incubated in cell culture medium without surfactant. […] Two 0.5 ml aliquots were neutralized and counted for radioactivity using a scintillation counter.

NIH 3T3 cells = experiment: Cell growth inhibition assay, NIH 3T3; assay type: cell-based, mouse; conditions: NIH3T3; NIH 3T3 mouse fibroblasts; 3-4 days; read-out: IC50 (uM conc. inhibiting growth of the cells by 50%)
Experimental: (§3) Established cell lines are the system of choice for the prescreening of unknown compounds for antineoplastic activity. The tumor cell line screen works on the following principle. Cancer cells, if provided with enough nutrients, will grow unchecked in vitro, allowing researchers to grow many types of cancer cells outside the body. To perform an assay, standard amounts of the various cancer cells are placed in individual wells of a microtiter plate, and incubated with the potential antineoplastic compound of interest, for a sufficient period of time to allow for at least a 6-fold control growth, generally 1 to 5 days depending on cell origin. At the end of the incubation period, the cell lines are stained and assayed by a variety of means including, for example, proteins stains or a colorimeter for normal growth, growth inhibition or cytotoxicity. These assays measure a compound's ability to inhibit cell growth and a positive response of the compounds in these assays would be indicative of the therapeutic potential of these compounds. See, for example, the protocols and data presented in Laskin et al., (1979) Cancer Res 39:383-390 for 5-fluorouracil in mouse and human cells in culture.
(§4) A total of ten cell lines were used to evaluate the growth inhibitory potency of the various surfactants. In these studies, human, rat, mouse and bovine cells were used. A spectrum of different tumor cell types were used including those derived from keratinocytes (PAM 212), leukemias (HL-60, U-937 and K-562), an epitheloid carcinoma (HeLa) and melanoma (B-16). The B16 melanoma was used since this is a common cell type used to evaluate antimetastatic activity of test compounds. The effect of the surfactants on three fibroblast cell lines (C3H 10T1/2, NIH 3T3 and R6) were also evaluated for comparison to the tumor cell lines. The activity of the surfactants was also evaluated using pulmonary aortic endothelial cells for effectiveness as antiangiogenic agents.
(§5) PAM 212 cells are a mouse keratinocyte-derived tumor cell line. U-937 cells are a human histiocytic tumor cell line. HeLa cells are an epitheloid tumor cell line. Three murine fibroblast cells lines tested included the mouse fibroblast cell line, C3H 10T1/2, the rat fibroblast cell line R6, and the NIH 3T3 mouse fibroblast cell line. The human leukemia cell line HL-60 and the mouse melanoma B-16 cell were also tested. K-562 cells were from the American Type Culture Collection. All cells were grown in Dulbecco's modified Eagle's medium in a 37° C. incubator in an atmosphere of 5% CO2.
(§6) For growth inhibition assays, cells were seeded at low density (2.5×10^4 cells in 0.5 ml of culture medium) into 24-well tissue culture plates (Falcon Labware, Lincoln Park, N.J.). After 24 hours at 37° C., increasing concentrations (1 to 100 uM) of the surfactants were added to the cells in the culture plate. Control cultures were incubated in the absence of any surfactant. The cells were then incubated for 3-4 days to allow for growth. Cells from individual wells in the culture plate were then removed and duplicate samples taken for counting using a Coulter counter. To remove adherent cells the plates were treated with 0.25% trypsin/0.2% EDTA (GIBCO, Grand Island, N.Y.).

PAM 212 cells = experiment: Cell growth inhibition assay (surfactants, 3-4 days, Coulter counter), PAM 212; assay type: cell-based, mouse; conditions: PAM212; PAM 212 mouse keratinocyte-derived tumor cells; 3-4 days; read-out: IC50 (uM conc. inhibiting growth of the cells by 50%)
Experimental: as §3, §4, §5, §6

[2] = tested on: HeLa cells, protein synthesis; experiment: Protein synthesis in HeLa cells (3H-leucine); assay type: cell-based; conditions: Homo sapiens, FIG. 2, 4 hours 3H-leucine, read-out: IC50 for leucine uptake (protein synthesis)
Experimental: as §1, §2

[3] = Critical micelle concentration (cmc); assay type: physicochemical
From the text: "Critical micelle concentration" or "cmc" refers to the point at which micelle formation begins.

K-562 cells = experiment: Cell growth inhibition assay, K-562; assay type: cell-based; conditions: Homo sapiens, K562; K-562 leukemia cells; 3-4 days; read-out: IC50 (uM conc. inhibiting growth of the cells by 50%)
Experimental: as §3, §4, §5, §6

ten cell lines = experiment: Cell growth inhibition assays, panel of cell lines; assay type: cell-based, human, rat, mouse and bovine
From the text: as §4, §5, §6

[4] = tested on: HeLa cells, RNA synthesis; experiment: RNA synthesis in HeLa cells (3H-uridine); assay type: cell-based; conditions: Homo sapiens, FIG. 2, 2 hours 3H-uridine, read-out: IC50 for uridine uptake (RNA synthesis)
Experimental: as §1, §2

B-16 cells = experiment: Cell growth inhibition assay, B-16 melanoma; assay type: cell-based, mouse; conditions: B16; B-16 mouse melanoma cells; 3-4 days; read-out: IC50 (uM conc. inhibiting growth of the cells by 50%)
Experimental: as §3, §4, §5, §6

R6 cells = experiment: Cell growth inhibition assay, R6; assay type: cell-based, rat; conditions: Fibroblast; R6 rat fibroblasts; 3-4 days; read-out: IC50 (uM conc. inhibiting growth of the cells by 50%)
Experimental: as §3, §4, §5, §6

C3H 10T1/2 cells = experiment: Cell growth inhibition assay, C3H 10T1/2; assay type: cell-based, mouse; conditions: C3H 10T1/2 mouse fibroblasts; 3-4 days; read-out: IC50 (uM conc. inhibiting growth of the cells by 50%)
Experimental: as §3, §4, §5, §6

HL-60 cells = experiment: Cell growth inhibition assay, HL-60; assay type: cell-based, human
Experimental: as §3, §4, §5, §6

CPA-5 cells = experiment: Cell growth inhibition assay, CPA-5 endothelial cells; assay type: cell-based, bovine; conditions: Bos taurus, CPA-5 bovine aortic endothelial cells, 3-4 days, read-out: IC50 (uM conc. inhibiting growth of the cells by 50%)
From the text: as §4, §5, §6
The compounds were tested as inhibitors of growth in the bovine aortic endothelial cell line CPA-5 as taught in Example 2 in order to evaluate the possibility that they may be anti-angiogenesis agents. A hallmark of angiogenesis is the outgrowth of endothelial cells which are required in the formation of new blood vessels. This process is a critical factor in the vascularization of tumors. Inhibition of neovascularization limits the growth of tumors and would be an effective means of treating cancer. FIG. 3 illustrates that three of the compounds, 8-3S, 12-5B and 12-1B, had no activity against the CPA-5 cell line in the concentration range tested (IC50 =>100 uM), while only relatively high concentrations of 12-3S (IC50 =70 uM) were effective in inhibiting the growth of CPA-5 cells. As indicated above, with several exceptions, these compounds were also not very effective in inhibiting the growth of each of the other cell types.

alloreactive Tc cells = conditions: dosages between 10 ng/ml and 100 ug/ml; WO85/05031; cited from earlier work

| IC50 ([1]; Homo sapiens, FIG. 2, 1 hour 3H-thymidine, read-out: IC50 for thymidine uptake (DNA synthesis)) | IC50 [2] | cmc [3] | IC50 (K-562 cells) | IC50 [4] | IC50 (B-16 cells) | IC50 (HL-60 cells; HL-60 human leukemia cells, 3-4 days, read-out: IC50 (uM conc. inhibiting growth of the cells by 50%)) | SMILES | selective inhibition of macromolecular synthesis ([1]; DNA, RNA and protein synthesis compared) | IC50 (NIH 3T3 cells) | IC50 (PAM 212 cells) | fold concentration required to inhibit K-562 and U-937 growth relative to HL-60 (ten cell lines; K-562 and U-937 versus HL-60) | fold concentration range spanned by the IC50's (ten cell lines; across cell lines) | IC50 (ten cell lines; all / all other cell lines tested, read-out: IC50 over the cell lines tested (range or bound)) | activity against all of the cell lines tested (ten cell lines; growth inhibition) | IC50 (R6 cells) | IC50 (C3H 10T1/2 cells) | fold greater sensitivity of HL-60 among the leukemia cells (HL-60 cells; HL-60 versus other leukemia cells) | IC50 (CPA-5 cells) | immunosuppressive on alloreactive Tc cells (alloreactive Tc cells) |
| --- | --- | --- | --- | --- | --- | --- | --- | --- | --- | --- | --- | --- | --- | --- | --- | --- | --- | --- | --- |
| 30 µM | 30 µM | 10 µM | 5.5 µM | 30 µM | 20 µM | 0.5 µM | CCCCCCCCCCCCCCCC[N+](C)(C)CCCCCC(=O)[O-] [16-5B, N-(5-carboxypentyl)-N,N-dimethyl-1-hexadecanaminium hydroxide inner salt] | does not appear to selectively inhibit any of these processes | 24 µM | 6 µM | approximately ten | 100 fold | 0.5 to 53 µM | considerable activity against all of the cell lines tested | 18 µM | 53 µM | 10 to 100 fold | 18 µM | – |
| – | – | – | – | – | – | – | CCCCCCCCCCCC[N+](C)(C)CCCCCCCCCCCC.[Br-] [didodecyl dimethyl ammonium bromide] | – | – | – | – | – | – | – | – | – | – | – | immunosuppressive on alloreactive Tc cells |
